Like-named read-outs stand apart in the source and are kept apart here.
Columns and labels:
[1] = molecular target: T1, human AXL (473-end) (Homo sapiens, UniProt P30530); test: HTRF kinase activity biochemical assay, AXL; settings: 10 μM ATP, 30 minutes pre-incubation
T1 construct: human AXL (473-end); purchased SignalChem, Canada
T1 sequence (P30530 473-894 limits assumed): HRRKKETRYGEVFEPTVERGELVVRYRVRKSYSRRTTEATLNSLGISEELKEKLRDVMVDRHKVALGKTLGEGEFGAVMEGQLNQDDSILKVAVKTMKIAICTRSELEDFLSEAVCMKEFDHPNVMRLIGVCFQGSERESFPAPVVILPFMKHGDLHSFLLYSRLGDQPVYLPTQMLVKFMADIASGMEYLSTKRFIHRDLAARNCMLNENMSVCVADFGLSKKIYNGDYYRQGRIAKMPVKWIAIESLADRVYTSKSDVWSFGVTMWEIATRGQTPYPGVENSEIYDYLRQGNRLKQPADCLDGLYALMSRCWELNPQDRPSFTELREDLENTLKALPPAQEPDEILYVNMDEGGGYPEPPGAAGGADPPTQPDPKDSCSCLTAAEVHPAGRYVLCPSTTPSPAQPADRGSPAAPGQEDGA

[2] = molecular target: T2, human TYRO3 (455-end) (Homo sapiens, UniProt Q06418); test: HTRF kinase activity biochemical assay, TYRO3
T2 construct: TYRO3 (455-end); purchased SignalChem, Canada
T2 sequence (Q06418 455-890 limits assumed): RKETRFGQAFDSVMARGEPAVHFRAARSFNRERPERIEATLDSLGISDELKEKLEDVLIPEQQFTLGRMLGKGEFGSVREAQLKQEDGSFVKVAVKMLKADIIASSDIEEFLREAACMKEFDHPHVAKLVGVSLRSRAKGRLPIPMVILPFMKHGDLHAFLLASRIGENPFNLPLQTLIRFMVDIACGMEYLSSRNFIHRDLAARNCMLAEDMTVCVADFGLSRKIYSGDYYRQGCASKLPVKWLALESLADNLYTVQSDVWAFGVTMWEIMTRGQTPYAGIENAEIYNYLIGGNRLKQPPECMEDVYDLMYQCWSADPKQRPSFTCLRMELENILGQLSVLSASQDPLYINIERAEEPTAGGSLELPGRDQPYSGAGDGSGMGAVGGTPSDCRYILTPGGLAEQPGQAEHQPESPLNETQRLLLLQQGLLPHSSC

[3] = molecular target: T3, human MER (528-end) (Homo sapiens, UniProt Q12866); test: HTRF kinase activity biochemical assay, MER; settings: 10 μM ATP, 30 minutes pre-incubation; read-out: HTRF MERTK IC50
T3 construct: human MER (528-end); purchased Camnabio, Japan
T3 sequence (Q12866 528-999 limits assumed): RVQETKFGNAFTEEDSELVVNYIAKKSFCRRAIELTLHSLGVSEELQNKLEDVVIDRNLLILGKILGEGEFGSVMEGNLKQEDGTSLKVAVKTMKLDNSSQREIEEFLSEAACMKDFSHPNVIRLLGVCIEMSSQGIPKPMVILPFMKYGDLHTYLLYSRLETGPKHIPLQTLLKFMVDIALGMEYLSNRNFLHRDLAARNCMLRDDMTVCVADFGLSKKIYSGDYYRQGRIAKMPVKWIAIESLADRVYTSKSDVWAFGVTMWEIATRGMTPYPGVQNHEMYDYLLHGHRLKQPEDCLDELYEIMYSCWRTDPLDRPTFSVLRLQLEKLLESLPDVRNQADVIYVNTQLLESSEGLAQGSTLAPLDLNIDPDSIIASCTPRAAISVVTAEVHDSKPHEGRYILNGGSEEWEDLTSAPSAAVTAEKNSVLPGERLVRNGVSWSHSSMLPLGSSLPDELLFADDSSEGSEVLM

[4] = 10 μM ATP, 30 minutes pre-incubation, read-out: HTRF TYRO IC50

Row | Structure (SMILES) | IC50 [1] | IC50 [2, 4] | IC50 [3] | IC50 [2]
1 | Cn1cc(-c2cnc(N)c(C(=O)N[C@H]3COC[C@@H]3OCc3ccc(-c4ccc5c(c4)C(C)(C)CN5C4CCN(CCO)CC4)cc3)n2)cn1 [Example 71, 3-amino-N-{(3S,4R)-4-[(4-{1-[1-(2-hydroxyethyl)piperidin-4-yl]-3,3-dimethyl-2,3-dihydro-1H-indol-5-yl}phenyl)methoxy]oxolan-3-yl}-6-(1-methyl-1H-pyrazol-4-yl)pyrazine-2-carboxamide] | 10 to 100 nM | 100 to 1000 nM | < 10 nM | 
2 | Cn1cc(-c2cnc(N)c(C(=O)N[C@H]3CCC[C@@H]3OCc3ccc(-c4ccc5c(c4)C4(CC4)CN(C4CCN(CCO)CC4)C5)cc3)c2)cn1 [Example 72, 2-amino-N-{(1S,2S)-2-[(4-{2′-[1-(2-hydroxyethyl)piperidin-4-yl]-2′,3′-dihydro-1′H-spiro[cyclopropane-1,4′-isoquinolin]-6′-yl}phenyl)methoxy]cyclopentyl}-5-(1-methyl-1H-pyrazol-4-yl)pyridine-3-carboxamide] | > 1000 nM | > 1000 nM | 100 to 1000 nM | 
3 | Cn1cc(-c2cnc(N)c(C(=O)N[C@H]3CCC[C@@H]3OCc3ccc(-c4ccc5c(n4)C(C)(C)C(=O)N5C4CCN(CCO)CC4)cc3)c2)cn1 [Example 73, 2-amino-N-{(1S,2S)-2-[(4-{1-[1-(2-hydroxyethyl)piperidin-4-yl]-3,3-dimethyl-2-oxo-2,3-dihydro-1H-pyrrolo[3,2-b]pyridin-5-yl}phenyl)methoxy]cyclopentyl}-5-(1-methyl-1H-pyrazol-4-yl)pyridine-3-carboxamide] | > 1000 nM |  | 100 to 1000 nM | 100 to 1000 nM
4 | CC1(C)C(=O)N(C2CCN(CCO)CC2)c2ccc(-c3ccc(CO[C@H]4CCC[C@@H]4NC(=O)c4cc(-c5ccc(F)nc5)cnc4N)cc3)nc21 [Example 74, 6-amino-6′-fluoro-N-{(1S,2S)-2-[(4-{1-[1-(2-hydroxyethyl)piperidin-4-yl]-3,3-dimethyl-2-oxo-2,3-dihydro-1H-pyrrolo[3,2-b]pyridin-5-yl}phenyl)methoxy]cyclopentyl}[3,3′-bipyridine]-5-carboxamide] | > 1000 nM |  | 100 to 1000 nM | 100 to 1000 nM
5 | Nc1ncc(-c2ccc(F)nc2)cc1C(=O)N[C@H]1CCC[C@@H]1OCc1ccc(-c2ccc3c(c2)C2(CC2)CN(C2CCN(CCO)CC2)C3)cc1 [Example 75, 6-amino-6′-fluoro-N-{(1S,2S)-2-[(4-{2′-[1-(2-hydroxyethyl)piperidin-4-yl]-2′,3′-dihydro-1′H-spiro[cyclopropane-1,4′-isoquinolin]-6′-yl}phenyl)methoxy]cyclopentyl}[3,3′-bipyridine]-5-carboxamide] | > 1000 nM | > 1000 nM | > 1000 nM | 
6 | Cn1cc(-c2cnc(N)c(C(=O)N[C@H]3CCC[C@@H]3OCc3ccc(-c4cnc5c(c4)C(C)(C)C(=O)N5C4CCN(CCO)CC4)cc3)c2)cn1 [Example 76, 2-amino-N-{(1S,2S)-2-[(4-{1-[1-(2-hydroxyethyl)piperidin-4-yl]-3,3-dimethyl-2-oxo-2,3-dihydro-1H-pyrrolo[2,3-b]pyridin-5-yl}phenyl)methoxy]cyclopentyl}-5-(1-methyl-1H-pyrazol-4-yl)pyridine-3-carboxamide] | 100 to 1000 nM |  | 10 to 100 nM | 100 to 1000 nM
7 | Cn1cc(-c2cnc(N)c(C(=O)N[C@H]3CCC[C@@H]3OCc3ccc(-c4cnc5c(c4)C(C)(C)CN5C4CCN(CCO)CC4)cc3)c2)cn1 [Example 77, 2-amino-N-{(1S,2S)-2-[(4-{1-[1-(2-hydroxyethyl)piperidin-4-yl]-3,3-dimethyl-2,3-dihydro-1H-pyrrolo[2,3-b]pyridin-5-yl}phenyl)methoxy]cyclopentyl}-5-(1-methyl-1H-pyrazol-4-yl)pyridine-3-carboxamide] | < 10 nM | 10 to 100 nM | < 10 nM | 
8 | CC1(C)OCC(CN2CCN(C3CCc4cc(-c5ccc(CO[C@H]6CCC[C@@H]6NC(=O)c6cc(-c7ccc(F)nc7)cnc6N)cc5)ccc43)CC2)O1 (stereo partly drawn) [Example 78, 6-amino-N-[(1S,2S)-2-{[4-(1-{4-[(2,2-dimethyl-1,3-dioxolan-4-yl)methyl]piperazin-1-yl}-2,3-dihydro-1H-inden-5-yl)phenyl]methoxy}cyclopentyl]-6′-fluoro[3,3′-bipyridine]-5-carboxamide] | 10 to 100 nM | > 1000 nM | < 10 nM | 
9 | Cn1cc(-c2cnc(N)c(C(=O)N[C@H]3CCC[C@@H]3OCc3ccc(-c4ccc5c(c4)CCC5N4CCN(CC5COC(C)(C)O5)CC4)cc3)c2)cn1 (stereo partly drawn) [Example 79, 2-amino-N-[(1S,2S)-2-{[4-(1-{4-[(2,2-dimethyl-1,3-dioxolan-4-yl)methyl]piperazin-1-yl}-2,3-dihydro-1H-inden-5-yl)phenyl]methoxy}cyclopentyl]-5-(1-methyl-1H-pyrazol-4-yl)pyridine-3-carboxamide] | < 10 nM | > 1000 nM | < 10 nM | 
10 | Cn1cc(-c2cnc(N)c(C(=O)N[C@H]3CCC[C@@H]3OCc3ccc(-c4ccc5c(c4)CCC5N4CCN(CC(O)CO)CC4)cc3)c2)cn1 (stereo partly drawn) [Example 81, 2-amino-N-{(1S,2S)-2-[(4-{1-[4-(2,3-dihydroxypropyl)piperazin-1-yl]-2,3-dihydro-1H-inden-5-yl}phenyl)methoxy]cyclopentyl}-5-(1-methyl-1H-pyrazol-4-yl)pyridine-3-carboxamide] | < 10 nM | 10 to 100 nM | < 10 nM | 
11 | CC1(C)CC(N2CCN(CCO)CC2)c2ccc(-c3ccc(CO[C@H]4CCC[C@@H]4NC(=O)c4cc(-c5ccc(F)nc5)cnc4N)cc3)cc21 (stereo partly drawn) [Example 84, 6-amino-6′-fluoro-N-{(1S,2S)-2-[(4-{1-[4-(2-hydroxyethyl)piperazin-1-yl]-3,3-dimethyl-2,3-dihydro-1H-inden-5-yl}phenyl)methoxy]cyclopentyl}[3,3′-bipyridine]-5-carboxamide] | < 10 nM | 10 to 100 nM | < 10 nM | 
12 | Nc1ncc(-c2ccc(F)nc2)cc1C(=O)N[C@H]1CCC[C@@H]1OCc1ccc(-c2ccc3c(c2)CC(F)(F)C3N2CCN(CCO)CC2)cc1 (stereo partly drawn) [Example 86, 6-amino-N-{(1S,2S)-2-[(4-{2,2-difluoro-1-[4-(2-hydroxyethyl)piperazin-1-yl]-2,3-dihydro-1H-inden-5-yl}phenyl)methoxy]cyclopentyl}-6′-fluoro[3,3′-bipyridine]-5-carboxamide] | < 10 nM | 100 to 1000 nM | < 10 nM | 
13 | Cn1ccc(-c2cc(C(=O)N[C@H]3CCC[C@@H]3OCc3ccc(-c4ccc5c(c4)CC(F)(F)C5N4CCN(CCO)CC4)cc3)cnc2N)cc1=O (stereo partly drawn) [Example 87, amino-N-{(1S,2S)-2-[(4-{2,2-difluoro-1-[4-(2-hydroxyethyl)piperazin-1-yl]-2,3-dihydro-1H-inden-5-yl}phenyl)methoxy]cyclopentyl}-1′-methyl-2′-oxo-1′,2′-dihydro[3,4′-bipyridine]-5-carboxamide] | < 10 nM | 100 to 1000 nM | < 10 nM | 
14 | Cn1ccc(-c2cnc(N)c(C(=O)N[C@H]3CCC[C@@H]3OCc3ccc(-c4ccc5c(c4)CC[C@@H]5N4CCN(CCO)CC4)cc3)c2)cc1=O [Example 92, 6-amino-N-{(1S,2S)-2-[(4-{(1S)-1-[4-(2-hydroxyethyl)piperazin-1-yl]-2,3-dihydro-1H-inden-5-yl}phenyl)methoxy]cyclopentyl}-1′-methyl-2′-oxo-1′,2′-dihydro[3,4′-bipyridine]-5-carboxamide] | < 10 nM | 10 to 100 nM | < 10 nM | 
15 | CN1CCN(C2CC(C)(C)c3cc(-c4ccc(CO[C@H]5CCC[C@@H]5NC(=O)c5cc(-c6ccc(F)nc6)cnc5N)cc4)ccc32)CC1 (stereo partly drawn) [Example 94, 6-amino-N-[(1S,2S)-2-({4-[3,3-dimethyl-1-(4-methylpiperazin-1-yl)-2,3-dihydro-1H-inden-5-yl]phenyl}methoxy)cyclopentyl]-6′-fluoro[3,3′-bipyridine]-5-carboxamide] | < 10 nM | 10 to 100 nM | < 10 nM | 

Source: patent US20260146035A1, “FUSED BICYCLIC COMPOUNDS AND THEIR USE AS MER AND AXL INHIBITORS” (DONG-A ST CO., LTD., priority 2022, published 2026)
